From patent US20230201238A1, “THERAPEUTIC AGENT FOR AN RNA VIRUS INFECTION COMPRISING A COMBINATION OF A PYRAZINE DERIVATIVE AND A THIOPURINE DERIVATIVE” (priority 2020, published 2023) come the findings set out here.

The test system of assay [1] is influenza virus (PR/8/34 (H1N1)). In kind it is cell-based. As to conditions: for IC50: Vero cells, 2 days, read-out: The 50% CPE inhibitory concentration of T-705.
Assay [2] has as its system Vero cells. The settings on record: with T-705.

SMILES strings stand for the structures. Like-named read-outs stand apart in the source and are kept apart here.

Take `CSc1ncnc2c1ncn2[C@@H]1O[C@H](CO)[C@@H](O)[C@H]1O` [6-methylmercaptopurine riboside]: the CPE inhibitory effect entry in assay [1] (6-methylmercaptopurine riboside 10 μM alone) is “did not show a CPE inhibitory effect”. In addition, the “Effect on intracellular T-705RTP amount after T-705 treatment” value in assay [2] is “increased”.
Take `NC(=O)c1nc(F)cnc1O` [T-705]: the IC50 was 183 µM in assay [1] (T-705 alone (6-methylmercaptopurine 0 μM)); 89.4 µM in assay [1] (with 6-methylmercaptopurine 0.1 μM); 48.9 µM in assay [1] (with 6-methylmercaptopurine 0.3 μM); 30.6 µM in assay [1] (with 6-methylmercaptopurine 1 μM); 21.9 µM in assay [1] (with 6-methylmercaptopurine 3 μM); 20.2 µM in assay [1] (with 6-methylmercaptopurine 10 μM). Besides, the “50% CPE inhibitory concentration of T-705 in combination compared to T-705 alone” value in assay [1] (in combination with 6-methylmercaptopurine riboside) is “lower”.
